According to patent US5082931A, “Type II bacterial Fc receptors” (University of Florida Research Foundation, Inc., priority 1989, dated 1992):
Residues, ends and D or L forms follow the SMILES beside them.

Tests used:
Design in all cases: species or system group A streptococcus
[1] = tested on: type II Fc receptor on group A streptococcal strain 64/14/HRP; test: Inhibition of 125I-labeled IgG binding to type II Fc receptor-positive bacteria by dipeptides or histidine; conditions: whole bacteria 64/14/HRP, 1.5 hr at 37° C., 20,000 cpm 125I human IgG; concentration range, see FIG. 7, FIG. 9
Method: Staphylococcus aureus Cowan I served as the representative type I Fc receptor-positive strain. The group A streptococcal strain 64/14/HRP served as a representative type II Fc receptor-positive strain. The group C streptococcal strain 26RP66 served as a representative type III Fc receptor-positive strain. All strains were grown as stationary cultures in Todd Hewitt broth (Difco) for 18-24 hr at 37° C., harvested by centrifugation and washed in phosphate buffered saline (PBS), pH 7.2.
Glycyl-L-tyrosine, glycyl-L-histidine, glycyl-glycine, glycyl-DL-leucine, glycyl-DL-phenylalanine, and L-histidine were utilized in the tests.
The detection of Fc-reactive proteins on the surface of bacteria was determined by the ability of the bacteria to bind ^125 I-labeled IgG as follows: Briefly, a stock preparation of bacteria was standardized to bind approximately 75% of the 20,000 cpm of labeled IgG added at pH 7.0. Following standardization for the Fc receptor activity, aliquots of bacteria were incubated with ^125 I-labeled IgG and the indicated amount of the dipeptides for 1.5 hr. at 37° C. […] The radioactivity associated with the bacteria was determined in an LKB autogamma counter. The cpm bound to the bacterial pellet were expressed as percent of maximum cpm bound. […]
A standard number of Staphylococcus aureus Cowan strain ( -- ), group C streptococcal strain 26RP66 (.largecircle.--.largecircle.), or the group A streptococcal strain 64/14/HRP ( .circle.--.circle. ) was incubated for 1.5 hr. at 37° C. with 20,000 cpm of ^125 I labeled human IgG in the presence of the indicated amounts of dipeptide. […] The radioactivity associated with the bacteria was determined in an LKB autogamma counter. The cpm bound to the bacterial pellet were expressed as percent of maximum cpm bound.
A standard number of group A streptococci was incubated for 1.5 hr. at 37° C. with 20,000 cpm of the appropriately ^125 I-labeled species IgG in the presence of the indicated amounts of histidine. […] The cpm bound to the bacterial pellet were expressed as percent of maximum cpm bound. […]

[2] = tested on: type IIa Fc receptor (Mr 56,000; receptor for human IgG1, IgG2 and IgG4) of group A streptococcal strain 64/14/HRP; test: Inhibition of 125I-labeled IgG1, IgG2, IgG4, pig or rabbit IgG binding to strain 64/14/HRP; conditions: whole bacteria 64/14/HRP, 1.5 hr at 37° C.; for inhibition of binding of labeled human IgG1, IgG2 and IgG4 to the bacteria: varying concentrations, FIG. 8 panels A, B, D; for inhibition of binding of labeled pig or rabbit IgG to the bacteria: FIG. 9
Method: (§1) In the next series of experiments, the ability of the inhibitory dipeptides, glycyl-tyrosine and glycyl-histidine, were tested for their ability to inhibit the binding of each labeled human IgG subclass to the type II receptor-positive 64/14/HRP bacteria. Glycyl-glycine was also included as a negative control.
(§2) A standard number of group A streptococci was incubated for 1.5 hr. at 37° C. with 20,000 cpm of the approprimately ^125 I-labeled human IgG subclasses in the presence of varying concentrations of dipeptide. The bacteria were pelleted by centrifugations of 1000×g for 10 min. and washed twice with 3 ml of veronal buffered saline containing 0.01 M EDTA and 0.1% gelatin. The radioactivity associated with the bacteria was determined in an LKB autogamma counter. The cpm bound to the baterial pellet were expressed as percent of maximum cpm bound. See FIG. 8 wherein Panel A represents the results obtained from the binding of ^125 I IgG1. Panel B represents the results obtained from the binding of ^125 I IgG2. Panel C represents the results obtained from the binding of ^125 I IgG3. Panel D represents the results obtained from the binding of ^125 I IgG4.
In the next series of experiments the effect of histidine, glycyl-histidineor glycyl-tyrosine on the binding of labeled pig or rabbit IgG was tested.
A standard number of group A streptococci was incubated for 1.5 hr. at 37° C. with 20,000 cpm of the appropriately ^125 I-labeled species IgG in the presence of the indicated amounts of histidine. The bacteria were washed as described above. The cpm bound to the bacterial pellet were expressed as percent of maximum cpm bound. In FIG. 9, ( .circle.--.circle. ) represents ^125 I human IgG; ( -- ) represents ^125 I pig IgG; and ( -- ) represents rabbit IgG.

[3] = tested on: type IIb Fc receptor (Mr 38,000; IgG3-specific receptor) of group A streptococcal strain 64/14/HRP; test: Inhibition of 125I-labeled human IgG3 binding to strain 64/14/HRP; conditions: whole bacteria 64/14/HRP, 1.5 hr at 37° C., varying concentrations; FIG. 8 panel C
Method: as §1, §2

| Structure (SMILES) | inhibition of binding of 125I-labeled human IgG to type II Fc receptor positive bacteria [1] | inhibition of binding of labeled human IgG1, IgG2 and IgG4 to the bacteria [2] | inhibition of binding of labeled pig or rabbit IgG to the bacteria [2] | inhibition of binding of labeled human IgG3 to the bacteria [3] |
| --- | --- | --- | --- | --- |
| N[C@@H](Cc1c[nH]cn1)C(=O)O [histidine, L-histidine] | inhibited | inhibited | inhibited | minimal inhibition |
| NCC(=O)N[C@@H](Cc1ccc(O)cc1)C(=O)O [glycyl-tyrosine, Glycyl-L-tyrosine] (H-Gly-Tyr-OH) | inhibition | efficiently inhibit | inhibited | minimal inhibition |
| NCC(=O)N[C@@H](Cc1c[nH]cn1)C(=O)O [glycyl-histidine, glycyl-L-histidine] (H-Gly-His-OH) | inhibition | efficiently inhibit | inhibited | minimal inhibition |
